Source: patent publication US20080119515A1, “Heterocyclic Kinase Inhibitors: Methods of Use and Synthesis” (priority 2003, published 2008)
pIC50: −log10 of the molar value.

Molecular target: T1, ZAP-70 (Homo sapiens, UniProt P43403)
T1 sequence (P43403 1-619): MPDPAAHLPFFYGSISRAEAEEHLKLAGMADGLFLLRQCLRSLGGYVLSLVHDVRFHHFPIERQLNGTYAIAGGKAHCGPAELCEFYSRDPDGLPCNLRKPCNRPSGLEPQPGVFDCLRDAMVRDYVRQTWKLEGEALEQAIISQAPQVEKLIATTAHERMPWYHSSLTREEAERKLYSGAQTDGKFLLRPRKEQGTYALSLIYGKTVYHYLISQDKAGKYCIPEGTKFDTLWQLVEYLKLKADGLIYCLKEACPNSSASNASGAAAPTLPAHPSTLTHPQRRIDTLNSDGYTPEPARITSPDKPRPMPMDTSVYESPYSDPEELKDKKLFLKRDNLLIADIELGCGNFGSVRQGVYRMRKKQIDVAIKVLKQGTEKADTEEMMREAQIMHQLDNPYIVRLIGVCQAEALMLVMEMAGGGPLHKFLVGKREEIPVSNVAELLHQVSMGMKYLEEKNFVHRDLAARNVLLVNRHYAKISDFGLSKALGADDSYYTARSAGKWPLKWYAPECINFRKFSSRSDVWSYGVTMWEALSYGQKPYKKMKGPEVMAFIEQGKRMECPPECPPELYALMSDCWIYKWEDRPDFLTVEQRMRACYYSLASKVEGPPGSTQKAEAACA
Assay: DELFIA assay (ZAP-70 kinase, phosphorylation of biotinylated poly(glu,tyr))
Assay type: biochemical
Conditions: ZAP-70 DELFIA, class symbols; read-out: Activity (IC50 in vitro)
In short: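 3.1 nM ZAP-70 pre-incubated 10 min at room temperature with compound ([…]) and 62.5 nM biotinylated poly(glu,tyr) in 62.5 mM Mops pH 7.0, 12.5 mM MgCl2, 12.5% glycerol, 6.25% DMSO (pre-incubation concentrations); ATP added from 5 mM stock, 30 min reaction, EDTA stop. Phosphorylation read by DELFIA europium anti-phosphotyrosine fluorescence (340/615).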

| pIC50 | Compound |
| --- | --- |
| 5.00 to 6.00 | O=C(c1cc(NCc2ccc(C(F)(F)F)cc2)nc2ccc(CCc3ccc(Cl)cc3)cc12)N1CCC[C@H]1CN1CCCC1 [Compound 287] |
| 5.00 to 6.00 | O=C(Nc1cc(C(=O)N2CCC[C@H]2CN2CCCC2)c2cc(-c3ccc4c(c3)OCO4)ccc2n1)c1ccccc1 [Compound 385] |
| < 5.00 | N#Cc1ccc(-c2ccc3nc(CCc4ccc(Cl)cc4)cc(C(=O)N4CCC[C@H]4CN4CCCC4)c3c2)cc1 [Compound 390] |
| 5.00 to 6.00 | O=C(c1cc(NCc2ccc(C(F)(F)F)cc2)nc2ccc(-c3cccc(F)c3)cc12)N1CCC[C@H]1CN1CCCC1 [Compound 304] |
| < 5.00 | O=C(c1cc(NCc2ccc(C(F)(F)F)cc2)nc2c(-c3ccc4c(c3)OCO4)cc(Cl)cc12)N1CCC[C@H]1CN1CCCC1 [Compound 383] |
| < 5.00 | CN(Cc1ccccc1)c1cc(C(=O)N2CCC[C@H]2CN2CCCC2)cc(-c2ccccc2)n1 [Compound 275] |
| > 6.00 | O=C(c1cc(Cc2ccc(N3CCC4(CCNCC4)CC3)cc2)nc2ccc(-c3ccc4c(c3)OCO4)cc12)N1CCCC1CN1CCCC1 (stereo not shown) [Compound 447] |
| > 6.00 | O=C(c1cc(NCc2ccc(C(F)(F)F)cc2)nc2ccc(C#Cc3cccc(C(F)(F)F)c3)cc12)N1CCC[C@H]1CN1CCCC1 [Compound 284] |
| > 6.00 | O=C(c1cc(Nc2cccc(C3CCNC[C@@H]3O)c2)nc2ccc(-c3ccc4c(c3)OCO4)cc12)N1CCCC1CN1CCCC1 (stereo partly shown) [Compound 430] |
| < 5.00 | O=C(c1cc(NCc2ccc(C(F)(F)F)cc2)nc2ccc(-c3cccnc3)cc12)N1CCC[C@H]1CN1CCCC1 [Compound 334] |
| 5.00 to 6.00 | O=C(c1cc(NCc2ccc(C(F)(F)F)cc2)nc2ccc(-c3cc4ccccc4s3)cc12)N1CCC[C@H]1CN1CCCC1 [Compound 298] |
| < 5.00 | O=C(c1cc(NCc2ccc(C(F)(F)F)cc2)nc2ccc(-c3ccc(CO)cc3)cc12)N1CCC[C@H]1CN1CCCC1 [Compound 417] |
| < 5.00 | O=C(c1cc(NCc2ccc(C(F)(F)F)cc2)nc2ccc(-c3cccc(CO)c3)cc12)N1CCC[C@H]1CN1CCCC1 [Compound 416] |
| < 5.00 | Cn1ccnc1-c1ccc2nc(NCc3ccc(C(F)(F)F)cc3)cc(C(=O)N3CCC[C@H]3CN3CCCC3)c2c1 [Compound 340] |
| > 6.00 | O=C(c1cc(NCc2ccc(C(F)(F)F)cc2)nc2ccc(/C=C/c3ccc(Cl)cc3)cc12)N1CCC[C@H]1CN1CCCC1 [Compound 286] |
| > 6.00 | O=C(c1cc(NCc2ccc(C(F)(F)F)cc2)nc2ccc(-c3ccc(F)cc3)cc12)N1CCC[C@H]1CN1CCCC1 [Compound 302] |
| < 5.00 | O=C(c1cc(NCc2ccc(C(F)(F)F)cc2)nc2ccc(-c3cccc([C@H]4CNCC[C@@H]4O)c3)cc12)N1CCC[C@H]1CN1CCCC1 [Compound 427] |
| < 5.00 | N=C(NC1CC1)[C@@H]1CCCN1C(=O)c1cc(NCc2ccc(C(F)(F)F)cc2)nc2ccc(-c3ccc4c(c3)OCO4)cc12 [Compound 377] |
| < 5.00 | CN(C)C(=O)c1ccc(-c2ccc3nc(NCc4ccc(C(F)(F)F)cc4)cc(C(=O)N4CCC[C@H]4CN4CCCC4)c3c2)cc1 [Compound 420] |
| < 5.00 | O=C(c1cc(NCc2ccc(C(F)(F)F)cc2)nc2ccc(-c3nc4ccccc4[nH]3)cc12)N1CCC[C@H]1CN1CCCC1 [Compound 354] |
| < 5.00 | CN(Cc1ccccc1)c1cc(C(=O)N2CCC[C@H]2CN2CCCC2)cc(/C=C/c2ccc(C(F)(F)F)cc2)n1 [Compound 278] |
| < 5.00 | N#Cc1ccc(-c2ccc3nc(CCc4ccccc4)cc(C(=O)N4CCC[C@H]4CN4CCCC4)c3c2)cc1 [Compound 391] |

Further lines, the compound ahead of its results:

| Compound | pIC50 |
| --- | --- |
| N#Cc1ccc(-c2ccc3nc(N4CCOC(c5ccccc5)C4)cc(C(=O)N4CCC[C@H]4CN4CCCC4)c3c2)cc1 (stereo partly shown) [Compound 255] | < 5.00 |
| N#Cc1ccc(-c2ccc3nc(NCc4csc5ccccc45)cc(C(=O)N4CCC[C@H]4CN4CCCC4)c3c2)cc1 [Compound 231] | < 5.00 |
| O=C(c1cc(N2CCOCC2)nc2ccc(-c3ccc4c(c3)OCO4)cc12)N1CCC[C@H]1CN1CCCC1 [Compound 62] | 5.00 to 6.00 |
| C[C@@H](Nc1cc(C(=O)N2CCC[C@H]2CN2CCCC2)c2cc(-c3ccc(C#N)cc3)ccc2n1)c1ccc2ccccc2c1 [Compound 207] | < 5.00 |
| C[C@@H](Nc1cc(C(=O)N2CCC[C@H]2CN2CCCC2)c2cc(-c3ccc(C#N)cc3)ccc2n1)[C@@H](O)c1ccccc1 [Compound 214] | < 5.00 |
| COCCN1CCN(c2cc(C(=O)N3CCC[C@H]3CN3CCCC3)c3cc(-c4ccc5c(c4)OCO5)ccc3n2)CC1 [Compound 73] | 5.00 to 6.00 |
| CN(Cc1cccc2ccccc12)c1cc(C(=O)N2CCC[C@H]2CN2CCCC2)c2cc(-c3ccc(C#N)cc3)ccc2n1 [Compound 246] | < 5.00 |
| C[C@@H](CNc1cc(C(=O)N2CCC[C@H]2CN2CCCC2)c2cc(-c3ccc(C#N)cc3)ccc2n1)c1ccccc1 [Compound 186] | < 5.00 |
| N#Cc1ccc(-c2ccc3nc(N4CCC[C@@H]4c4ccccc4Cl)cc(C(=O)N4CCC[C@H]4CN4CCCC4)c3c2)cc1 [Compound 258] | < 5.00 |
| N#Cc1ccc(-c2ccc3nc(NCc4cc(C(F)(F)F)ccc4F)cc(C(=O)N4CCC[C@H]4CN4CCCC4)c3c2)cc1 [Compound 238] | < 5.00 |
| O=C(c1cc(NCc2ccccc2)nc2ccccc12)N1CCC[C@H]1CN1CCCC1 [Compound 14] | < 5.00 |
| N#Cc1ccc(-c2ccc3nc(N[C@@H]4CCCc5ccccc54)cc(C(=O)N4CCC[C@H]4CN4CCCC4)c3c2)cc1 [Compound 205] | < 5.00 |
| N#Cc1ccc(-c2ccc3nc(NCc4ccc(OC(F)F)cc4)cc(C(=O)N4CCC[C@H]4CN4CCCC4)c3c2)cc1 [Compound 233] | < 5.00 |
| O=C(Nc1cc(C(=O)N2CCC[C@H]2CN2CCCC2)c2cc(-c3ccc4c(c3)OCO4)ccc2n1)c1ccc(C(F)(F)F)cc1 [Compound 102] | 5.00 to 6.00 |
| N#Cc1ccc(-c2ccc3nc(NCc4ccc(F)cc4Cl)cc(C(=O)N4CCC[C@H]4CN4CCCC4)c3c2)cc1 [Compound 250] | < 5.00 |
| N#Cc1ccc(-c2ccc3c(C(=O)N4CCC[C@H]4CN4CCCC4)cc(NCc4ccc(C(F)(F)F)cc4)nc3c2)cc1 [Compound 120] | 5.00 to 6.00 |
| N#Cc1cccc(-c2ccc3nc(-c4cccc(C#N)c4)cc(C(=O)N4CCC[C@H]4CN4CCCC4)c3c2)c1 [Compound 96] | 5.00 to 6.00 |
| CC(Nc1cc(C(=O)N2CCC[C@H]2CN2CCCC2)c2cc(-c3ccc(C#N)cc3)ccc2n1)c1ccc(Br)cc1 (stereo partly shown) [Compound 222] | < 5.00 |
| O=C(c1cc(Nc2ccccn2)nc2ccc(-c3ccc4c(c3)OCO4)cc12)N1CCC[C@H]1CN1CCCC1 [Compound 19] | > 6.00 |
| O=C(NCCc1ccccc1)c1cc(C(=O)N2CCC[C@H]2CN2CCCC2)c2cc(-c3ccc4c(c3)OCO4)ccc2n1 [Compound 141] | 5.00 to 6.00 |
| N#Cc1ccc(-c2ccc3nc(NCc4ccccc4)cc(C(=O)N4CCC[C@H]4CN4CCCC4)c3c2)cc1 [Compound 154] | < 5.00 |
| N#Cc1ccc(-c2ccc3nc(NC4Cc5ccccc5C4)cc(C(=O)N4CCC[C@H]4CN4CCCC4)c3c2)cc1 [Compound 155] | < 5.00 |
| O=C(Nc1ccc2cn[nH]c2c1)c1cc(NCc2ccccc2)nc2ccc(-c3ccc4c(c3)OCO4)cc12 [Compound 85] | 5.00 to 6.00 |
| N#Cc1ccc(-c2ccc3nc(NCc4ccc(Cl)cc4F)cc(C(=O)N4CCC[C@H]4CN4CCCC4)c3c2)cc1 [Compound 180] | < 5.00 |
